7 compounds from patent US8076487B2, “Pyridone derivative and herbicide” (Kumiai Chemical Industry Co., Ltd., priority 2006, dated 2011) can be followed below.

The structures appear in SMILES notation.

Holding throughout (assay type): in vivo
The test system of test [1] is early watergrass (Echinochloa oryzicola Vasing). In words: Test Example 1: herbicidal effect by soil application to paddy field. Conditions: paddy field soil application; active ingredient 1,000 g per 1 hectare; wettable powder added dropwise to water surface the day after sowing; examined on the 21st day after application. Summed up:
(§1)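 Under greenhouse conditions, seeds sown on puddled paddy soil in 100 cm2 pots under 3 cm of standing water received the test compound; injury was assessed with a standard scoring scheme three weeks (day 21) after treatment.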

Test [2] has as its system Japanese bulrush (Scirpus juncoides Roxb.). The description is as above. Conditions: paddy field soil application; active ingredient 1,000 g per 1 hectare; wettable powder added dropwise to water surface the day after sowing; examined on the 21st day after application. Summed up:
as §1

Test [3] concerns heartshape false pickerelweed (Monochoria vaginalis (Burm.f.) C.Presl). The test is described as above. Conditions: paddy field soil application; active ingredient 1,000 g per 1 hectare; wettable powder added dropwise to water surface the day after sowing; examined on the 21st day after application. In a few lines: as §1
Test [4] has as its system green foxtail (Setaria viridis (L.) P. Beauv.). In words: Test Example 3: herbicidal effect by application to upland field (foliage treatment). Conditions: 14th day after application; for herbicidal effect, Green Foxtail: foliage treatment, 1,000 g active ingredient per 1 hectare, greenhouse. Summed up: (§2)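 Read-out is a visual herbicidal-effect grade on a standard scale, taken on the 14th day after a single foliar spray. The spray was wettable powder diluted in water, 1,000 g active ingredient/ha at 1,000 L/ha, applied to greenhouse plants two weeks after sowing.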

Test [5] deals with slender amaranth (Amaranthus viridis L.). Described as above. Conditions: 14th day after application; for herbicidal effect, Slender Amaranth: foliage treatment, 1,000 g active ingredient per 1 hectare, greenhouse. In a few lines: as §2
Test [6] concerns velvetleaf (Abutilon theophrasti medicus). The description is as above. Conditions: 14th day after application; for herbicidal effect, Velvetleaf: foliage treatment, 1,000 g active ingredient per 1 hectare, greenhouse. Summed up: as §2
In test [7] the test system is barnyardgrass (Echinochloa crus-galli (L.) P. Beauv. var. crus-galli). Described as above. Conditions: 14th day after application; for herbicidal effect, Barnyardgrass: foliage treatment, 1,000 g active ingredient per 1 hectare, greenhouse. Summed up:
as §2

Test [8] deals with green foxtail (Setaria viridis (L.) P. Beauv.). In words: Test Example 2: herbicidal effect by soil application to upland field. Conditions: soil surface spray, upland field soil, 1,000 g active ingredient per hectare, 21st day after application. Summed up:
(§3)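 Dose was 1,000 g active ingredient per hectare, applied as a wettable powder diluted in water and sprayed evenly over the soil of sown, covered pots at a 1,000 L/ha equivalent. Effect was judged by a standard scale 21 d later under greenhouse conditions.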

Test [9] concerns slender amaranth (Amaranthus viridis L.). The test is described as above. Conditions: soil surface spray, upland field soil, 1,000 g active ingredient per hectare, 21st day after application. Summed up: as §3
The test system of test [10] is velvetleaf (Abutilon theophrasti medicus). The description is as above. Conditions: soil surface spray, upland field soil, 1,000 g active ingredient per hectare, 21st day after application. In a few lines:
as §3

In test [11] the test system is barnyardgrass (Echinochloa crus-galli (L.) P. Beauv. var. crus-galli). Described as above. Conditions: soil surface spray, upland field soil, 1,000 g active ingredient per hectare, 21st day after application. In a few lines:
as §3

Setting [12] is: foliage treatment, plants grown two weeks, 1,000 g active ingredient per hectare.

For `O=C1CCCC(O)=C1C(=O)c1ccc(C(F)(F)F)n(NCC2CCCO2)c1=O` (centres unmarked) [I-170], in test [1], the “herbicidal effect, Echinochloa oryzicola Vasing” value is 5 (90% or more of herbicidal effect and crop phytotoxicity). For the same compound, the “herbicidal effect, Scirpus juncoides Roxb.” value in test [2] is 5 (90% or more of herbicidal effect and crop phytotoxicity). Further, the “herbicidal effect, Monochoria vaginalis (Burm. f.) C. Presl” value (from here on “herbicidal effect, Monochoria vaginalis”) in test [3] was 5 (90% or more of herbicidal effect and crop phytotoxicity). Besides, in test [4], the “herbicidal effect, Green Foxtail” value was 4 (70 to less than 90% of herbicidal effect and crop phytotoxicity). In addition, the “herbicidal effect, Slender Amaranth” value in test [5] was 5 (90% or more of herbicidal effect and crop phytotoxicity). Besides, the “herbicidal effect, Velvetleaf” value in test [6] was 5 (90% or more of herbicidal effect and crop phytotoxicity). The “herbicidal effect, Barnyardgrass” value in test [7] was 5 (90% or more of herbicidal effect and crop phytotoxicity). Further, the “herbicidal effect (index), Green Foxtail” value in test [8] was 5 (90% or more of herbicidal effect and crop phytotoxicity). For the same compound, the “herbicidal effect (index), Slender Amaranth” value in [9] was 5 (90% or more of herbicidal effect and crop phytotoxicity). The “herbicidal effect (index), Velvetleaf” value in test [10] was 5 (90% or more of herbicidal effect and crop phytotoxicity). In addition, the “herbicidal effect (index), Barnyardgrass” value in test [11] is 5 (90% or more of herbicidal effect and crop phytotoxicity).
As for `CNn1c(C(F)(F)F)ccc(C(=O)c2cnn(C)c2O)c1=O` [IV-146], the “herbicidal effect, Echinochloa oryzicola Vasing” value in test [1] is 5 (90% or more of herbicidal effect and crop phytotoxicity). Further, the “herbicidal effect, Scirpus juncoides Roxb.” value in test [2] is 5 (90% or more of herbicidal effect and crop phytotoxicity). In addition, the “herbicidal effect, Monochoria vaginalis” value in test [3] was 5 (90% or more of herbicidal effect and crop phytotoxicity). Further, in test [4], the “herbicidal effect, Green Foxtail” value was 5 (90% or more of herbicidal effect and crop phytotoxicity). For the same compound, the “herbicidal effect, Slender Amaranth” value in [5] is 5 (90% or more of herbicidal effect and crop phytotoxicity). Further, the “herbicidal effect, Velvetleaf” value in [6] was 5 (90% or more of herbicidal effect and crop phytotoxicity). For the same compound, the “herbicidal effect, Barnyardgrass” value in test [7] is 5 (90% or more of herbicidal effect and crop phytotoxicity). For the same compound, the “herbicidal effect (index), Green Foxtail” value in test [8] was 5 (90% or more of herbicidal effect and crop phytotoxicity). Besides, the “herbicidal effect (index), Slender Amaranth” value in test [9] was 5 (90% or more of herbicidal effect and crop phytotoxicity). The “herbicidal effect (index), Velvetleaf” value in test [10] was 5 (90% or more of herbicidal effect and crop phytotoxicity). Moreover, the “herbicidal effect (index), Barnyardgrass” value in test [11] was 5 (90% or more of herbicidal effect and crop phytotoxicity).
For `CC(C)n1ncc(C(=O)c2ccc(C(F)(F)F)n(C)c2=O)c1O` [IV-219], the “herbicidal effect, Echinochloa oryzicola Vasing” value in test [1] is 5 (90% or more of herbicidal effect and crop phytotoxicity). In addition, the “herbicidal effect, Scirpus juncoides Roxb.” value in [2] was 5 (90% or more of herbicidal effect and crop phytotoxicity). Further, the “herbicidal effect, Monochoria vaginalis” value in test [3] is 5 (90% or more of herbicidal effect and crop phytotoxicity). For the same compound, the “herbicidal effect, Green Foxtail” value in [4] is 3 (50 to less than 70% of herbicidal effect and crop phytotoxicity). For the same compound, in [5], the “herbicidal effect, Slender Amaranth” value is 5 (90% or more of herbicidal effect and crop phytotoxicity). Besides, the “herbicidal effect, Velvetleaf” value in [6] is 5 (90% or more of herbicidal effect and crop phytotoxicity). The “herbicidal effect, Barnyardgrass” value in test [7] is 5 (90% or more of herbicidal effect and crop phytotoxicity). In addition, the “herbicidal effect (index), Green Foxtail” value in test [8] was 3 (50 to less than 70% of herbicidal effect and crop phytotoxicity). Further, the “herbicidal effect (index), Slender Amaranth” value in test [9] is 5 (90% or more of herbicidal effect and crop phytotoxicity). For the same compound, in test [10], the “herbicidal effect (index), Velvetleaf” value is 5 (90% or more of herbicidal effect and crop phytotoxicity). The “herbicidal effect (index), Barnyardgrass” value in test [11] is 5 (90% or more of herbicidal effect and crop phytotoxicity).
With `Cn1c(C(F)(F)F)ccc(C(=O)C2=C(O)CCCC2=O)c1=O` [I-1, 2-[1,2-dihydro-1-methyl-2-oxo-6-(trifluoromethyl)-pyridine-3-carbonyl]-3-hydroxy-2-cyclohexen-1-one], the “herbicidal effect, Echinochloa oryzicola Vasing” value in [1] was 5 (90% or more of herbicidal effect and crop phytotoxicity). Also, the “herbicidal effect, Scirpus juncoides Roxb.” value in [2] is 5 (90% or more of herbicidal effect and crop phytotoxicity). Besides, the “herbicidal effect, Monochoria vaginalis” value in test [3] was 5 (90% or more of herbicidal effect and crop phytotoxicity). Moreover, the “herbicidal effect (index), Green Foxtail” value in [4] (setting [12]) was 3 (50 to less than 70% of herbicidal effect and crop phytotoxicity); in [8], 4 (70 to less than 90% of herbicidal effect and crop phytotoxicity). Moreover, the “herbicidal effect (index), Slender Amaranth” value is 5 (90% or more of herbicidal effect and crop phytotoxicity) in test [5] (setting [12]); 5 (90% or more of herbicidal effect and crop phytotoxicity) in [9]. The “herbicidal effect (index), Velvetleaf” value in [6] (setting [12]) was 5 (90% or more of herbicidal effect and crop phytotoxicity); in test [10], 5 (90% or more of herbicidal effect and crop phytotoxicity). Also, the “herbicidal effect (index), Barnyardgrass” value in test [7] (setting [12]) is 4 (70 to less than 90% of herbicidal effect and crop phytotoxicity); in test [11], 5 (90% or more of herbicidal effect and crop phytotoxicity).
As for `COC(Cn1c(C(F)(F)F)ccc(C(=O)C2=C(O)CCCC2=O)c1=O)OC` [I-137], the “herbicidal effect, Echinochloa oryzicola Vasing” value in test [1] is 5 (90% or more of herbicidal effect and crop phytotoxicity). In addition, in [2], the “herbicidal effect, Scirpus juncoides Roxb.” value was 5 (90% or more of herbicidal effect and crop phytotoxicity). In addition, the “herbicidal effect, Monochoria vaginalis” value in test [3] is 5 (90% or more of herbicidal effect and crop phytotoxicity). Further, the “herbicidal effect, Green Foxtail” value in test [4] was 4 (70 to less than 90% of herbicidal effect and crop phytotoxicity). Moreover, in [5], the “herbicidal effect, Slender Amaranth” value was 5 (90% or more of herbicidal effect and crop phytotoxicity). Moreover, the “herbicidal effect, Velvetleaf” value in test [6] is 5 (90% or more of herbicidal effect and crop phytotoxicity). Also, in [7], the “herbicidal effect, Barnyardgrass” value is 5 (90% or more of herbicidal effect and crop phytotoxicity). Further, in test [8], the “herbicidal effect (index), Green Foxtail” value was 5 (90% or more of herbicidal effect and crop phytotoxicity). Besides, in test [9], the “herbicidal effect (index), Slender Amaranth” value was 5 (90% or more of herbicidal effect and crop phytotoxicity). In test [10], the “herbicidal effect (index), Velvetleaf” value is 5 (90% or more of herbicidal effect and crop phytotoxicity). For the same compound, in test [11], the “herbicidal effect (index), Barnyardgrass” value was 5 (90% or more of herbicidal effect and crop phytotoxicity).
In the case of `Cn1ncc(C(=O)c2ccc(C(F)(F)F)n(-c3ccc4c(c3)OCCO4)c2=O)c1O` [IV-101], the “herbicidal effect, Echinochloa oryzicola Vasing” value in test [1] was 5 (90% or more of herbicidal effect and crop phytotoxicity). Besides, the “herbicidal effect, Scirpus juncoides Roxb.” value in test [2] was 5 (90% or more of herbicidal effect and crop phytotoxicity). In addition, the “herbicidal effect, Monochoria vaginalis” value in test [3] was 5 (90% or more of herbicidal effect and crop phytotoxicity). Besides, the “herbicidal effect, Green Foxtail” value in test [4] is 3 (50 to less than 70% of herbicidal effect and crop phytotoxicity). For the same compound, in [5], the “herbicidal effect, Slender Amaranth” value is 4 (70 to less than 90% of herbicidal effect and crop phytotoxicity). The “herbicidal effect, Velvetleaf” value in test [6] is 4 (70 to less than 90% of herbicidal effect and crop phytotoxicity). Besides, the “herbicidal effect, Barnyardgrass” value in [7] is 5 (90% or more of herbicidal effect and crop phytotoxicity). Also, the “herbicidal effect (index), Green Foxtail” value in test [8] is 4 (70 to less than 90% of herbicidal effect and crop phytotoxicity). Further, in test [9], the “herbicidal effect (index), Slender Amaranth” value is 5 (90% or more of herbicidal effect and crop phytotoxicity). Further, in test [10], the “herbicidal effect (index), Velvetleaf” value is 4 (70 to less than 90% of herbicidal effect and crop phytotoxicity). The “herbicidal effect (index), Barnyardgrass” value in [11] is 5 (90% or more of herbicidal effect and crop phytotoxicity).
Regarding `CCCn1c(C(F)(F)F)c(C)cc(C(=O)C2=C(O)CCCC2=O)c1=O` [I-215], the “herbicidal effect, Echinochloa oryzicola Vasing” value in [1] was 5 (90% or more of herbicidal effect and crop phytotoxicity). In addition, the “herbicidal effect, Scirpus juncoides Roxb.” value in test [2] is 5 (90% or more of herbicidal effect and crop phytotoxicity). The “herbicidal effect, Monochoria vaginalis” value in test [3] is 5 (90% or more of herbicidal effect and crop phytotoxicity). Also, the “herbicidal effect, Green Foxtail” value in test [4] is 5 (90% or more of herbicidal effect and crop phytotoxicity). Besides, the “herbicidal effect, Slender Amaranth” value in [5] is 5 (90% or more of herbicidal effect and crop phytotoxicity). Moreover, the “herbicidal effect, Velvetleaf” value in [6] was 5 (90% or more of herbicidal effect and crop phytotoxicity). In addition, the “herbicidal effect, Barnyardgrass” value in test [7] was 5 (90% or more of herbicidal effect and crop phytotoxicity). In addition, the “herbicidal effect (index), Green Foxtail” value in test [8] is 5 (90% or more of herbicidal effect and crop phytotoxicity). The “herbicidal effect (index), Slender Amaranth” value in test [9] was 5 (90% or more of herbicidal effect and crop phytotoxicity). The “herbicidal effect (index), Velvetleaf” value in [10] is 5 (90% or more of herbicidal effect and crop phytotoxicity). Moreover, in test [11], the “herbicidal effect (index), Barnyardgrass” value was 5 (90% or more of herbicidal effect and crop phytotoxicity).
